Key:
Assay type in all cases: cell-based
[1] = test system: M2-10B4 marrow stromal cells; assay: Alkaline phosphatase activity in M2-10B4 marrow stromal cells; details: for Effect on Shh-induced alkaline phosphatase activity / Alkaline Phosphatase Activity: M2-10B4 cells
From the text: Alkaline phosphatase activity provides a measure of the osteogenic differentiation of cells. […] The oxysterol combination SS contains 22(S)-hydroxycholesterol and 20(S)-hydroxycholesterol in equal molar proportions. An indication of the molar concentration of the oxysterol combination SS refers to the molar concentration of each component of the combination.

[2] = test system: hedgehog pathway; assay: Net effect of LXR agonists on the hedgehog pathway
From the text: Thus, GW3965 is a hedgehog-inhibiting LXR agonist. […] Thus, 22(R)-hydroxycholesterol is a hedgehog-inhibiting LXR agonist. […] The Oxy13 compound is discussed in international application PCT/US2007/05073, which is hereby incorporated by reference.
A known hedgehog agonist is contacted with a model cell in an amount known to induce a hedgehog pathway response or hedgehog signaling response in the cell. Any cell that responds to a hedgehog agonist and an LXR agonist can be used as a model cell. The compound is then tested with an assay to measure the level of hedgehog activation or hedgehog signaling. One of skill in the art would know how to select an assay and conduct an assay to measure the level of hedgehog activation or hedgehog signaling. The hedgehog agonist will cause the level of hedgehog activation or signaling to increase above that of a control cell. While the hedgehog agonist is in contact with the cell, the compound being tested is also contacted with the cell. The level of hedgehog activation or signaling is measured. If introducing the compound decreases the level of hedgehog activation or signaling a statistically significant amount below the level when only the hedgehog agonist was in contact with the cell, then the compound is deemed a hedgehog-inhibiting LXR agonist.

[3] = test system: LXRα and LXRβ; assay: Inhibition of Shh-induced signaling and alkaline phosphatase activity in siRNA-transfected cells; details: for Ability to inhibit Shh-induced signaling and alkaline phosphatase activity: cells transfected with LXRα and LXRβ siRNA; for Ability to inhibit Shh-induced signaling and alkaline phosphatase activity: blocked or not: cells transfected with control scrambled siRNA
From the text: Small interfering RNA (siRNA) to LXRα and LXRβ caused an 80-90% inhibition of mRNA expression for these genes, as well as inhibition of ligand-induced expression of LXR target genes, ATP-binding cassette (ABC) transporter proteins ABCA1 and ABCG1.

[4] = test system: marrow stromal cells; assay: Osteogenic differentiation of marrow stromal cells; details: for Effect on oxysterol-induced osteogenic differentiation: marrow stromal cells
Method: Certain osteogenic oxysterols, such as 20(S)-hydroxycholesterol (20S), induce the osteogenic differentiation of marrow stromal cells by activating the hedgehog signaling pathway. […] Thus, LXR activation can interfere with osteogenic differentiation induced by the activation of hedgehog signaling.
When treated with from 1-10 μM of GW3965 for 8 days, GW3965 inhibited Shh-induced alkaline phosphatase activity.

[5] = test system: M2-10B4 cells; assay: Shh-induced osteocalcin mRNA expression in M2-10B4 cells; details: 3 days, 1 μM to 10 μM, relative to Shh alone
[6] = test system: C3H10T½ mouse embryonic fibroblasts; assay: Alkaline phosphatase activity in C3H10T½ cells; details: 1-10 μM
[7] = test system: C3H10T½ mouse embryonic fibroblasts; assay: Osteocalcin expression in C3H10T½ cells; details: 1-10 μM
[8] = test system: Gli-luciferase reporter construct (8Xgli); assay: Gli-luciferase reporter assay in M2-10B4 cells
Method: Activation or inhibition of the hedgehog pathway was assessed by measuring Gli-reporter activity. This provided a direct indication of the activation or inhibition of the hedgehog pathway. A first set of marrow stromal cells, M2-10B4, were transfected with a Gli-luciferase reporter construct (8Xgli) and a second set of M2-10B4 were transfected with an empty reporter construct without Gli response elements (pGL3b). […] Gli-luciferase reporter activity was tested after 48 hours of treatment. FIG. 1 presents the results of the study. Results from a representative experiment are shown as the mean of triplicate determinations±SD, and expressed as fold induction over control untreated cells.

[9] = test system: Gli-1; assay: Q-RT-PCR expression of hedgehog target gene Gli-1 in M2-10B4 cells
Method: (§1) Activation or inhibition of the hedgehog pathway was assessed by extracting RNA from test cells and using quantitative real time PCR (Q-RT-PCR) to measure the expression of the hedgehog target genes, Gli-1 and Patched (Ptch). […] Expression of Gli-1 and Patched (Ptch) was measured after 72 hours of treatment. FIGS. 2A and 2B present the results of the study. Results from a representative experiment are shown as the mean of triplicate determinations±SD, and expressed as fold induction over control untreated cells.

[10] = test system: Patched (Ptch); assay: Q-RT-PCR expression of hedgehog target gene Patched (Ptch) in M2-10B4 cells
Method: as §1

[11] = 72 hours, SS 5 μM + TO901317 5 μM
[12] = 72 hours, SS 5 μM + TO901317 10 μM
[13] = 72 hours, Shh 100 ng/mL + TO901317 5 μM
[14] = 72 hours, Shh 100 ng/mL + TO901317 10 μM

CC(C)CCC[C@](C)(O)[C@H]1CC[C@H]2[C@@H]3CC=C4C[C@@H](O)CC[C@]4(C)[C@H]3CC[C@@]21C [20(S)-hydroxycholesterol]
Induction of alkaline phosphatase activity ([1]; marrow stromal cells M2-10B4, oxysterol alone): induce alkaline phosphatase activity
Net effect on the hedgehog pathway [2]: activating the hedgehog pathway

CC(C)CC[C@@H](O)[C@@H](C)[C@H]1CC[C@H]2[C@@H]3CC=C4C[C@@H](O)CC[C@]4(C)[C@H]3CC[C@]12C [22(R)-hydroxycholesterol]
Net effect on the hedgehog pathway [2]: inhibiting the hedgehog pathway

C[C@H](CCCC(C)(C)O)[C@H]1CC[C@H]2[C@@H]3CC=C4C[C@@H](O)CC[C@]4(C)[C@H]3CC[C@]12C [25-hydroxycholesterol]
Net effect on the hedgehog pathway [2]: leaves the hedgehog pathway active

O=C(O)Cc1cccc(OCCCN(Cc2cccc(C(F)(F)F)c2Cl)CC(c2ccccc2)c2ccccc2)c1 [GW3965, 3-[3-[[[2-chloro-3-(trifluoromethyl)phenyl]methyl](2,2-diphenylethyl)amino]propoxy]benzeneacetic acid]
Effect on Shh-induced alkaline phosphatase activity ([1]; 8 days, 1-10 μM): inhibited
Ability to inhibit Shh-induced signaling and alkaline phosphatase activity [3]: blocked
Ability to inhibit Shh-induced signaling and alkaline phosphatase activity: blocked or not [3]: not
Effect on Shh-induced osteogenic differentiation ([4]; M2-10B4 marrow stromal cells): inhibited
Effect on oxysterol-induced osteogenic differentiation [4]: block
Net effect on the hedgehog pathway [2]: inhibiting the hedgehog pathway

C=C(C)CCC[C@](C)(O)C1CCC2C3CC=C4CC(O)CC[C@]4(C)C3CC[C@@]21C (stereo partly drawn) [Oxy13]
Net effect on the hedgehog pathway [2]: activating the hedgehog pathway

O=S(=O)(c1ccccc1)N(CC(F)(F)F)c1ccc(C(O)(C(F)(F)F)C(F)(F)F)cc1 [TO901317]
Effect on Shh-induced alkaline phosphatase activity ([1]; 3 days, concentrations as low as 1 μM): inhibited
Alkaline Phosphatase Activity ([1]; SS 5 μM + TO901317 5 μM): 198 ± 17 units/mg protein ± SD
Alkaline Phosphatase Activity ([1]; SS 5 μM + TO901317 10 μM): 61 ± 12 units/mg protein ± SD
Alkaline Phosphatase Activity ([1]; Shh 50 ng/ml + TO901317 5 μM): 3±2 units/mg protein ± SD
Effect on Shh-induced osteocalcin mRNA expression [5]: inhibited
Effect on alkaline phosphatase activity [6]: inhibited
Effect on osteocalcin expression [7]: inhibited
Gli-luciferase reporter activity ([8]; 48 hours, SS 5 μM + TO901317 5 μM): about 2.5 fold induction over control un
Gli-luciferase reporter activity ([8]; 48 hours, SS 5 μM + TO901317 10 μM): about the same level as of the control cells
Gli-luciferase reporter activity ([8]; 48 hours, Shh 200 ng/mL + TO901317 5 μM): about the same level as of the control cells
Gli-luciferase reporter activity ([8]; TO901317 alone, 5 μM or 10 μM): less than the control cells
Gli-1 expression [9, 11]: about 8 fold induction over control un
Gli-1 expression [9, 12]: about 7 fold induction over control un
Gli-1 expression [9, 13]: about 7 fold induction over control un
Gli-1 expression [9, 14]: about 3 fold induction over control un
Gli-1 expression ([9]; TO901317 alone, 5 μM or 10 μM): less than the control cells
Ptch expression [10, 11]: about 6 fold induction over control un
Ptch expression (FIG. 2B; sentence prints Gli-1 expression) [10, 12]: about 4 fold induction over control un
Ptch expression [10, 13]: about the same level as that of the control cells
Ptch expression [10, 14]: about the same level as that of the control cells
Ptch expression ([10]; TO901317 alone, 5 μM or 10 μM): about the same as the control cells
Ability to inhibit Shh-induced signaling and alkaline phosphatase activity [3]: blocked
Ability to inhibit Shh-induced signaling and alkaline phosphatase activity: blocked or not [3]: not
Effect on oxysterol-induced osteogenic differentiation [4]: block
Net effect on the hedgehog pathway [2]: inhibiting the hedgehog pathway
